The source of these data is patent publication US12162893B2 (Erasca, Inc., priority 2020, dated 2024).

The structures appear in SMILES notation.

This experiment has as its target T1, mutant G12C K-RAS (Homo sapiens, UniProt P01116, G12C).
T1 construct: made in house; host or cells: E. coli BL21
Briefly: covalent adduct formation (CAF) with mutant G12C K-RAS. The format is binding. The settings on record: Table 6; 10 μM, 1 h. How it is done: Embodiments disclosed herein are further illustrated by the following examples in Tables 1-4 and the Examples hereinbelow. The Tables indicate the compound number, structure, the observed mass spectral molecular weight peak, and covalent adduct formation (CAF) with a mutant G12C K-RAS after 60 minutes at a concentration of 10 micromolar.

For the compound `C=CC(=O)N1C[C@H](C)N(c2nc(=O)n3c4c(c(-c5c(O)cccc5F)c(Cl)cc24)OC[C@@H]3Cn2ccnc2)C[C@H]1C` (atropisomer, axis not shown) [Example 248, (3S)-3-((1H-imidazol-1-yl)methyl)-7-((2S,5R)-4-acryloyl-2,5-dimethylpiperazin-1-yl)-9-chloro-10-(2-fluoro-6-hydroxyphenyl)-2H-[1,4]oxazino[2,3,4-ij]quinazolin-5(3H)-one], the “% CAF @ 10 μM,1 h” value was found to be 2.3%.

In the case of `C=CC(=O)N1C[C@H](C)N(c2nc(=O)n3c4c(c(-c5c(O)cccc5F)c(Cl)cc24)OC[C@@H]3CCCN2CCOCC2)C[C@H]1C` (atropisomer, axis not shown) [Example 265, (3S,10S)-7-((2S,5R)-4-acryloyl-2,5-dimethylpiperazin-1-yl)-9-chloro-10-(2-fluoro-6-hydroxyphenyl)-3-(3-morpholinopropyl)-2,3-dihydro-5H-[1,4]oxazino[2,3,4-ij]quinazolin-5-one], the “% CAF @ 10 μM,1 h” value is reported as 97.5%.

For the compound `C=CC(=O)N1C[C@H](C)N(c2nc(=O)n3c4c(c(-c5cccc6ccccc56)c(Cl)cc24)OC[C@H]3Cn2cccn2)C[C@H]1C` (atropisomer, axis not shown) [Example 292, (3R,10S)-3-((1H-pyrazol-1-yl)methyl)-7-((2S,5R)-4-acryloyl-2,5-dimethylpiperazin-1-yl)-9-chloro-10-(naphthalen-1-yl)-2,3-dihydro-5H-[1,4]oxazino[2,3,4-ij]quinazolin-5-one], the “% CAF @ 10 μM,1 h” value is reported as 95%.

With `C=CC(=O)N1C[C@H](C)N(c2nc(=O)n3c4c(c(-c5cccc6ccccc56)c(Cl)cc24)OC[C@H]3CN2CCN(C)CC2)C[C@H]1C` (atropisomer, axis not shown) [Example 294, (3R,10R)-7-((2S,5R)-4-acryloyl-2,5-dimethylpiperazin-1-yl)-9-chloro-3-((4-methylpiperazin-1-yl)methyl)-10-(naphthalen-1-yl)-2H-[1,4]oxazino[2,3,4-ij]quinazolin-5(3H)-one], the “% CAF @ 10 μM,1 h” value amounted to 75.2%.

Consider `C=CC(=O)N1C[C@H](C)N(c2nc(=O)n3c4c(c(-c5cccc6ccccc56)c(Cl)cc24)OC[C@H]3CN2CCN(C)CC2)C[C@H]1C` (atropisomer, axis not shown) [Example 295, (3R,10R)-7-((2S,5R)-4-acryloyl-2,5-dimethylpiperazin-1-yl)-9-chloro-3-((4-methylpiperazin-1-yl)methyl)-10-(naphthalen-1-yl)-2H-[1,4]oxazino[2,3,4-ij]quinazolin-5(3H)-one], for which the “% CAF @ 10 μM,1 h” value is 58.4%.

Regarding `C=CC(=O)N1C[C@H](C)N(c2nc(=O)n3c4c(c(-c5c(O)cccc5F)c(Cl)cc24)OC[C@H]3CN2CCN(C)CC2)C[C@H]1C` (atropisomer, axis not shown) [Example 300, (3R,10R)-7-((2S,5R)-4-acryloyl-2,5-dimethylpiperazin-1-yl)-9-chloro-10-(2-fluoro-6-hydroxyphenyl)-3-((4-methylpiperazin-1-yl)methyl)-2,3-dihydro-5H-[1,4]oxazino[2,3,4-ij]quinazolin-5-one], the “% CAF @ 10 μM,1 h” value was 0%.

In the case of `C=CC(=O)N1C[C@H](C)N(c2nc(=O)n3c4c(c(-c5c(O)cccc5F)c(Cl)cc24)OC[C@H]3CN2CCN(C)CC2)C[C@H]1C` (atropisomer, axis not shown) [Example 301, (3R,10S)-7-((2S,5R)-4-acryloyl-2,5-dimethylpiperazin-1-yl)-9-chloro-10-(2-fluoro-6-hydroxyphenyl)-3-((4-methylpiperazin-1-yl)methyl)-2,3-dihydro-5H-[1,4]oxazino[2,3,4-ij]quinazolin-5-one], the “% CAF @ 10 μM,1 h” value is on record as 52.1%.

In the case of `C=CC(=O)N1C[C@H](C)N(c2nc(=O)n3c4c(c(-c5c(O)cccc5F)c(Cl)cc24)OC[C@@H]3CN2CCN(C)CC2)C[C@H]1C` (atropisomer, axis not shown) [Example 305, (3S,10R)-7-((2S,5R)-4-acryloyl-2,5-dimethylpiperazin-1-yl)-9-chloro-10-(2-fluoro-6-hydroxyphenyl)-3-((4-methylpiperazin-1-yl)methyl)-2,3-dihydro-5H-[1,4]oxazino[2,3,4-ij]quinazolin-5-one], the “% CAF @ 10 μM,1 h” value was 0%.
